What was measured:
[1] = target: T1, Serotonin 3 (5-HT3) receptor (Rattus norvegicus, UniProt P35563+Q9JJ16)
T1 sequence (P35563 whole entry): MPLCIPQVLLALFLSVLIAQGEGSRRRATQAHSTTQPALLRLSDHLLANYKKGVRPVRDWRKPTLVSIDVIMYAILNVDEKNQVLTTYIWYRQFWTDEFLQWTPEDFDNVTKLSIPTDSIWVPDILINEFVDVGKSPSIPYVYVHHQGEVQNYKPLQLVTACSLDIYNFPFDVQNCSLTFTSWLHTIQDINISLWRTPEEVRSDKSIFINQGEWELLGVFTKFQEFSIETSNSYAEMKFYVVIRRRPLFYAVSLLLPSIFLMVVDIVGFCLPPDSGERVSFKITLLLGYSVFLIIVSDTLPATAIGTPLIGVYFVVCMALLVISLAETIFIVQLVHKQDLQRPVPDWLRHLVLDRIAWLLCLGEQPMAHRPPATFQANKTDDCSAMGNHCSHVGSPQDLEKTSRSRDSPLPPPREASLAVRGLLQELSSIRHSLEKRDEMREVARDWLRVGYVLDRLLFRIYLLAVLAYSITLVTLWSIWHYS
T1 sequence (Q9JJ16 whole entry): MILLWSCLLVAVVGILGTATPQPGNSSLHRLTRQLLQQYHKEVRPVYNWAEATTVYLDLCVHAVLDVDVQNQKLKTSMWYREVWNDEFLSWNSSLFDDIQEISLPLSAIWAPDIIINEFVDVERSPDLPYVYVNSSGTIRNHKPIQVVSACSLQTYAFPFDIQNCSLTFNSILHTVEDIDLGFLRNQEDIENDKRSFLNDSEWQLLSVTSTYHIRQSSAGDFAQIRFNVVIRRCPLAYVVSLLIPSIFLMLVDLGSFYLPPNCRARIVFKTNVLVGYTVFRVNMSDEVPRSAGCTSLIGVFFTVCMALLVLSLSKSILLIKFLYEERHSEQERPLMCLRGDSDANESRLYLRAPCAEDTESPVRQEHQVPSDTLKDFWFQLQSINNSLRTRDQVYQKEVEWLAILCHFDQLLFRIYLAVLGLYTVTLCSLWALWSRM

Acetylcholinesterase [2] = target: T2, Acetylcholinesterase (Homo sapiens, UniProt P22303)
T2 sequence (P22303 whole entry): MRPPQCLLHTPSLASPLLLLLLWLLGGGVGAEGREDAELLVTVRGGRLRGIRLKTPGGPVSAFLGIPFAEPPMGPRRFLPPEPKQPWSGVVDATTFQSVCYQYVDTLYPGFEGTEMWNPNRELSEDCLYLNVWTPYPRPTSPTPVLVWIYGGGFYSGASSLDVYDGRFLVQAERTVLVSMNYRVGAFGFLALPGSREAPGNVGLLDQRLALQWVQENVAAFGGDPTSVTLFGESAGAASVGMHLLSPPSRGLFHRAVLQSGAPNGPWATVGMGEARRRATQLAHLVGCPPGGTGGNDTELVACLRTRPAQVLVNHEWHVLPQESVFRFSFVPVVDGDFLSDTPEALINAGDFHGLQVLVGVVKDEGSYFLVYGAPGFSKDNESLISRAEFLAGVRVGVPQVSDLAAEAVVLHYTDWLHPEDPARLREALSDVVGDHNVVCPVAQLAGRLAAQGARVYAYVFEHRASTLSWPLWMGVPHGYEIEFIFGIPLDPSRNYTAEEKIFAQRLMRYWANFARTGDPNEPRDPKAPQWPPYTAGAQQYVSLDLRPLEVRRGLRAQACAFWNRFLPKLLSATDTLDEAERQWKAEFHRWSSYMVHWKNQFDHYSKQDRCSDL
Description: (§1) Inhibitory concentration against human acetylcholinesterase

Cholinesterase [3] = target: T3, Cholinesterase (Homo sapiens, UniProt P06276)
T3 sequence (P06276 whole entry): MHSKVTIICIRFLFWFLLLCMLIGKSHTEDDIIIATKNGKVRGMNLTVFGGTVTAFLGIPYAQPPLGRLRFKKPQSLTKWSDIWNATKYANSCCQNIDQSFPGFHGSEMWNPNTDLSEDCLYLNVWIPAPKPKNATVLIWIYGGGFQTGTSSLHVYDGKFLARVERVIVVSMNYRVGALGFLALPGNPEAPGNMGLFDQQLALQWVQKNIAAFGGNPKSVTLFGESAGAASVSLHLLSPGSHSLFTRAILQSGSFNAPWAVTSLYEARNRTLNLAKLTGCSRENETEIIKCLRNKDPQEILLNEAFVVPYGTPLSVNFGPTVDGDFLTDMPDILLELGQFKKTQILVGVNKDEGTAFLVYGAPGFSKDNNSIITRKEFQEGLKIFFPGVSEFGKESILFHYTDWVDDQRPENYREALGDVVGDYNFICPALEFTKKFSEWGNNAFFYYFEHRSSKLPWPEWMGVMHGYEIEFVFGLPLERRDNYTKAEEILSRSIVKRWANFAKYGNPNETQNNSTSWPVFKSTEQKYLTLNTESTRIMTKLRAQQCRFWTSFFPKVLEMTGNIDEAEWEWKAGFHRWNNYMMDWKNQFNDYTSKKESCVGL

Acetylcholinesterase [4] = target: T2, Acetylcholinesterase; remark: listed apart in the source
Description: as §1

Cholinesterase [5] = target: T3, Cholinesterase; assay: Inhibitory concentration against butyrylcholinesterase

Ki [1]	Structure (SMILES)	other results
0.11 nM	CCCN(CCC)C(=O)c1c(C)c(N2CCN(C)CC2)nc2ccccc12	–
0.41 nM	CN1CCN(c2cc(C(=O)N(C)Cc3ccccc3)c3ccccc3n2)CC1	–
2.1 nM	CN1CCN(c2nc3ccccc3c3c2CN(C)C3=O)CC1	–
3 nM	CCN1Cc2c(N3CCN(C)CC3)nc3ccccc3c2C1=O	–
188 nM	CCCCCCN(CCCCCC)C(=O)c1c(C)c(N2CCN(C)CC2)nc2ccccc12	–
0.78 nM	CCCCN(CCCC)C(=O)c1c(C)c(N2CCN(C)CC2)nc2ccccc12	–
6.2 nM	CN1CCN(c2nc3ccccc3c3c2CN(Cc2ccccc2)C3=O)CC1	–
2.2 nM	Cc1c(N2CCN(C)CC2)nc2ccccc2c1C(=O)N(C(C)C)C(C)C	–
0.68 nM	CCCN(CCC)C(=O)c1cc(N2CCN(C)CC2)nc2ccccc12	–
0.92 nM	CCCc1c(N2CCN(C)CC2)nc2ccccc2c1C(=O)N(CC)CC	–
1.6 nM	Cc1c(N2CCN(C)CC2)nc2ccccc2c1C(=O)N1CCCC1	–
1.2 nM	CCCc1c(N2CCN(C)CC2)nc2ccccc2c1C(=O)N(CCC)CCC	–
1.6 nM	CCN(CC)C(=O)c1cc(N2CCN(C)CC2)nc2ccccc12	–
3.6 nM	CCCN1Cc2c(N3CCN(C)CC3)nc3ccccc3c2C1=O	–
0.51 nM	CCc1c(N2CCN(C)CC2)nc2ccccc2c1C(=O)N(CC)CC	–
2.7 nM	CN1CCN(c2nc3ccccc3c(CO)c2CO)CC1	–
4.2 nM	CCC(C)N1Cc2c(N3CCN(C)CC3)nc3ccccc3c2C1=O (stereo not drawn)	–
14 nM	CCCc1c(N2CCN(C)CC2)nc2ccccc2c1C(=O)N(C)Cc1ccccc1	–
10 nM	CCc1c(N2CCN(C)CC2)nc2ccccc2c1C(=O)N(C)Cc1ccccc1	–

Second part, the molecule before the results:

Structure (SMILES)	Ki [1]	other results
Cc1c(N2CCN(C)CC2)nc2ccccc2c1C(=O)N(C)Cc1ccccc1	0.55 nM	IC50 (Acetylcholinesterase [2]): > 10000 nM; IC50 (Cholinesterase [3]): > 10000 nM
Cc1c(N2CCN(C)CC2)nc2ccccc2c1C(=O)N(C)c1ccc(Cl)cc1	13 nM	–
C#CCN(C)C(=O)c1c(C)c(N2CCN(C)CC2)nc2ccccc12	0.45 nM	–
CCOC(=O)c1c(CC)c(N2CCN(C)CC2)nc2ccccc12	0.21 nM	–
Cc1c(N2CCN(C)CC2)nc2ccccc2c1C(=O)c1ccccc1	0.84 nM	–
CCOC(=O)c1cc(N2CCN(C)CC2)nc2ccccc12	0.85 nM	–
CCCN(CCC)C(=O)c1c(CC)c(N2CCN(C)CC2)nc2ccccc12	1.1 nM	–
Cc1c(N2CCN(C)CC2)nc2ccccc2c1C(=O)NCCCCCCCNc1c2c(nc3ccccc13)CCCC2	5.6 nM	IC50 (Acetylcholinesterase [4]): 4.1 nM; IC50 (Cholinesterase [5]): 40 nM
Cc1c(Cl)nc2ccccc2c1C(=O)NCCCCCCCNc1c2c(nc3ccccc13)CCCC2	–	IC50 (Acetylcholinesterase [4]): 3 nM; IC50 (Cholinesterase [5]): 32 nM
CN1CCN(c2nc3ccccc3c3c2COC3=O)CC1	2.4 nM	–
CCOC(=O)c1c(N2CCN(C)CC2)nc2ccccc2c1C	0.17 nM	–
CCN(CC)C(=O)c1c(C)c(N2CCN(C)CC2)nc2ccccc12	0.37 nM	–
CCOC(=O)c1c(C)c(N2CCNCC2)nc2ccccc12	0.56 nM	–
CCOC(=O)c1c(C)c(N2CCN(C)CC2)nc2ccccc12	0.43 nM	IC50 (Acetylcholinesterase [2]): > 10000 nM; IC50 (Cholinesterase [3]): > 10000 nM
CCCCCN(CCCCC)C(=O)c1c(C)c(N2CCN(C)CC2)nc2ccccc12	19 nM	–
CCCc1c(N2CCN(C)CC2)nc2ccccc2c1C(=O)OCC	0.08 nM	–
CN1CCN(c2nc3ccccc3c3c2CCC3)CC1	0.24 nM	–

From ChEMBL document CHEMBL1139512, “Further studies on the interaction of the 5-hydroxytryptamine3 (5-HT3) receptor with arylpiperazine ligands. development of a new 5-HT3 receptor ligand showing potent acetylcholinesterase inhibitory properties” (J Med Chem, 2005)
